The test system of the experiment is BDF1 mice, L1210 leukemia sc, survival T/C. The experiment is described as follows: NCI In Vivo Anticancer Drug Screen. Data for tumor model L1210 Leukemia (subcutaneous) in B6D2F1 (BDF1) mice. The following applies: endpoint: median survival time, higher = longer survival. The essentials:
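Tumors were transplanted into mice, the animals were treated with compound, survival or tumor size was then measured, and treated values were divided by vehicle-control values.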

[1] abbreviates: dose: 23.0 mg/kg/injection, schedule: Q01DX Z (sc), vehicle: methylcellulose (MC).

Several values for one entry are separate records, joined by “and”; a condition that tells them apart may be missing. Equal values may be shown once. Toxic doses and inconclusive results are not listed.

`N=[N+]=CC(=O)CCC(NC(=O)C(CCC(=O)C=[N+]=N)NC(=O)CCC(N)C(=O)O)C(=O)O` (stereo unspecified): the T/C is 94 % of control (dose: 0.1 mg/kg/injection, schedule: Q01DX009 (ip), vehicle: water); 95 % of control and 106 % of control (dose: 0.1 mg/kg/injection, schedule: Q01DX009 (sc), vehicle: water); 94 % of control (dose: 0.2 mg/kg/injection, schedule: Q01DX009 (ip), vehicle: water); 102 % of control (dose: 0.2 mg/kg/injection, schedule: Q01DX009 (sc), vehicle: water); 95 % of control (dose: 0.4 mg/kg/injection, schedule: Q01DX009 (ip), vehicle: water); 103 % of control (dose: 0.4 mg/kg/injection, schedule: Q01DX009 (sc), vehicle: water). For the same compound, the T/C is 95 % of control (dose: 0.8 mg/kg/injection, schedule: Q01DX009 (ip), vehicle: water); 101 % of control and 102 % of control (dose: 0.8 mg/kg/injection, schedule: Q01DX009 (sc), vehicle: water); 91 % of control (dose: 1.6 mg/kg/injection, schedule: Q01DX009 (ip), vehicle: water); 103 % of control and 106 % of control (dose: 1.6 mg/kg/injection, schedule: Q01DX009 (sc), vehicle: water).

Consider `[N-]=[N+]=CC(=O)NCC(=O)NN`, for which the T/C reads like this: (dose: 65.0 mg/kg/injection, schedule: Q01DX Z (sc), vehicle: saline) 90 % of control; (dose: 108.0 mg/kg/injection, schedule: Q01DX Z (sc), vehicle: saline) 100 % of control; (dose: 180.0 mg/kg/injection, schedule: Q01DX Z (sc), vehicle: saline) 100 % of control; (dose: 300.0 mg/kg/injection, schedule: Q01DX Z (sc), vehicle: saline) 100 % of control; (dose: 500.0 mg/kg/injection, schedule: Q01DX Z (sc), vehicle: saline) 100 % of control; (dose: 833.0 mg/kg/injection, schedule: Q01DX Z (sc), vehicle: saline) 107 % of control.

Consider `CCCC(=O)OCC1OC(n2cnc3c(=S)nc(N)[nH]c32)C(OC(=O)CCC)C1OC(=O)CCC` (stereo unspecified), for which the T/C reads like this: (dose: 14.0 mg/kg/injection, schedule: Q01DX Z (sc), vehicle: carboxymethylcellulose (CMC)) 112 % of control; (dose: 23.0 mg/kg/injection, schedule: Q01DX Z (sc), vehicle: carboxymethylcellulose (CMC)) 100 % of control; (dose: 39.0 mg/kg/injection, schedule: Q01DX Z (sc), vehicle: carboxymethylcellulose (CMC)) 112 % of control; (dose: 65.0 mg/kg/injection, schedule: Q01DX Z (sc), vehicle: carboxymethylcellulose (CMC)) 175 % of control; (dose: 108.0 mg/kg/injection, schedule: Q01DX Z (sc), vehicle: carboxymethylcellulose (CMC)) 168 % of control; (dose: 180.0 mg/kg/injection, schedule: Q01DX Z (sc), vehicle: carboxymethylcellulose (CMC)) 150 % of control.

As for `CS(=O)(=O)OCCCl`, the T/C (dose: 14.0 mg/kg/injection, schedule: Q01DX Z (sc), vehicle: methylcellulose (MC)) is 90 % of control; the T/C under setting [1] is 95 % of control; the T/C (dose: 39.0 mg/kg/injection, schedule: Q01DX Z (sc), vehicle: methylcellulose (MC)) was 90 % of control; the T/C (dose: 65.0 mg/kg/injection, schedule: Q01DX Z (sc), vehicle: methylcellulose (MC)) was 100 % of control.

Turning to `COc1cccc2c1C(=O)c1c(O)c3c(c(O)c1C2=O)C[C@@](O)(C(=O)CO)C[C@@H]3OC1CC(N)C(O)C(C)O1` (stereo partly specified), the T/C (dose: 0.39 mg/kg/injection, schedule: Q03HX008 (ip), vehicle: water) was 88 % of control; the T/C (dose: 0.39 mg/kg/injection, schedule: Q03HX008 (sc), vehicle: water) was 100 % of control; the T/C (dose: 0.65 mg/kg/injection, schedule: Q01DX005 (ip), vehicle: water) was 95 % of control; the T/C (dose: 0.65 mg/kg/injection, schedule: Q01DX005 (sc), vehicle: water) was 95 % of control; the T/C (dose: 0.65 mg/kg/injection, schedule: Q03HX008 (ip), vehicle: water) was 100 % of control (2×) and 111 % of control; the T/C (dose: 1.0 mg/kg/injection, schedule: Q04DX003 (ip), vehicle: saline) was 92 % of control. Further, the T/C is 95 % of control (dose: 1.08 mg/kg/injection, schedule: Q01DX005 (ip), vehicle: water); 100 % of control (dose: 1.08 mg/kg/injection, schedule: Q01DX005 (sc), vehicle: water); 100 % of control and 105 % of control and 111 % of control (dose: 1.08 mg/kg/injection, schedule: Q03HX008 (ip), vehicle: water); 100 % of control (dose: 1.8 mg/kg/injection, schedule: Q01DX005 (ip), vehicle: water); 110 % of control (dose: 1.8 mg/kg/injection, schedule: Q01DX005 (sc), vehicle: water); 111 % of control (dose: 1.8 mg/kg/injection, schedule: Q03HX008 (ip), vehicle: water). For the same compound, the T/C (dose: 1.8 mg/kg/injection, schedule: Q04DX003 (sc), vehicle: water) is 111 % of control; the T/C (dose: 2.0 mg/kg/injection, schedule: Q04DX003 (ip), vehicle: saline) was 94 % of control; the T/C (dose: 3.0 mg/kg/injection, schedule: Q01DX001 (sc), vehicle: water) was 111 % of control; the T/C (dose: 3.0 mg/kg/injection, schedule: Q01DX005 (sc), vehicle: water) was 110 % of control; the T/C (dose: 3.0 mg/kg/injection, schedule: Q04DX003 (sc), vehicle: water) is 116 % of control; the T/C (dose: 4.0 mg/kg/injection, schedule: Q04DX003 (ip), vehicle: saline) is 92 % of control. Further, the T/C is, setting by setting: (dose: 5.0 mg/kg/injection, schedule: Q01DX001 (iv), vehicle: water) 111 % of control and 115 % of control; (dose: 5.0 mg/kg/injection, schedule: Q01DX001 (sc), vehicle: water) 111 % of control; (dose: 5.0 mg/kg/injection, schedule: Q04DX003 (sc), vehicle: water) 122 % of control; (dose: 8.0 mg/kg/injection, schedule: Q04DX003 (ip), vehicle: saline) 91 % of control; (dose: 8.4 mg/kg/injection, schedule: Q01DX001 (iv), vehicle: water) 122 % of control; (dose: 14.0 mg/kg/injection, schedule: Q01DX001 (sc), vehicle: water) 111 % of control. Further, the T/C is, setting by setting: (dose: 14.0 mg/kg/injection, schedule: Q04DX003 (sc), vehicle: water) 94 % of control; (dose: 23.0 mg/kg/injection, schedule: Q01DX001 (iv), vehicle: water) 67 % of control.

As to `O=C(Nc1ccc(S(=O)(=O)O)cc1)c1ccc([N+](=O)[O-])cc1`, the T/C is 155 % of control (dose: 8.4 mg/kg/injection, schedule: Q01DX Z (sc), vehicle: water); 194 % of control (dose: 14.0 mg/kg/injection, schedule: Q01DX Z (sc), vehicle: water); 150 % of control (dose: 23.0 mg/kg/injection, schedule: Q01DX Z (sc), vehicle: water).

On to `O=C(O)c1ccc([N+](=O)[O-])cc1`, for which the T/C under setting [1] was 104 % of control.

Source of the values: PubChem BioAssay AID250 (DTP/NCI, 2004).
